What was measured:
[1] = based on the safety data sheet (SDS); cited from earlier work

## [O]=[Mg] [MgO]
other
  Solubility in brine (in words): insoluble

## [Cl-].[Cl-].[Mg+2] [magnesium chloride]
[1]
  Biodegradability (in words): good biodegradability
  Toxicity as an individual substance (in words): non-toxic

Reference: patent US20230265336A1, “COMPOSITION WITH FOAMING PROPERTIES” (priority 2020, published 2023)
